# Source: patent US20020127282A1, “Multivalent silver pharmaceuticals” (priority 1991, published 2002)
# Like-named read-outs stand apart in the source and are kept apart here.
# Key:
# [1] = crystal concentrate applied
# Method: (§1) Tests were conducted to see whether said tetroxide posed any harm to the human body. Accordingly, a 3% concentrate of the compound was prepared for a series of evaluations.
# The fourth evaluation dealt with primary eye irritation. This also was in conformity with 40 CFR 160.
# [2] = tested on: Staphylococcus aureus; settings: 24 hours at 34-35° C., 10 PPM sodium persulfate
# Method: (§4) Once it could be determined that the devices inhibited a particular microorganism, the minimal concentration required of Ag4O4 was determined to inhibit the microorganism in nutrient broth. Strains of gram positive bacteria were chosen for the evaluation. […] Accordingly, three staph strains were selected as follows for evaluation: Staphylococcus aureus 9027 and 27543, and Staphylococcus epidermidis 12228. The inoculum nutrient broth was prepared according to AOAC specifications so as to contain 0.6-1 million organisms per drop of inoculum, each drop being equal to 0.05 ml. The broth itself was trypticase soy broth BBL 11766 prepared according to label instructions. Accordingly, the broth was prestandardized for the microorganisms in question in order to assure that the number of organisms remained constant within the margins of statistical allowance during the test period.
# [3] = tested on: Candida albercans; settings: Sabouraud dextrose broth
# [4] = tested on: Chorella species; format: cell-based; settings: within 5 minutes; Chorella species incubated for 10 days in algae nutrient
# Method: (§5) Select compounds of said moieties were also evaluated against algae utilizing Chorella species incubated for 10 days in algae nutrient. […] It was evaluated at 0.5 and 1.0 PPM on gram positive and negative cultures in the presence of 10 PPM sodium persulfate.
# [5] = tested on: Streptococcus faecalis; settings: 0.5 PPM; within 0.5 minutes; 10 PPM sodium persulfate; AOAC protocol
# Method: as §5
# [6] = tested on: Streptococcus ogalactiae 27956
# Method: as §4
# [7] = tested on: E. coli; settings: 0.5 PPM; within 0.5 minutes; 10 PPM sodium persulfate; AOAC protocol
# Method: as §5
# [8] = tested on: Pseudomonas aeruginosa 9027; settings: concentration not given
# Method: (§2) More stringent testing was then performed in which the cultures were actually placed in trypticase soy nutrient broth, which allowed the pathogens being tested to replicate without being detached from its own food supply.
# [9] = tested on: Streptococcus faecalis strain 10541; settings: trypticase soy nutrient broth
# Method: as §2
# [10] = tested on: E. coli; settings: trypticase soy nutrient broth
# Method: as §2
# [11] = rats
# Method: as §1
# The first evaluation met the requirements of Code of Federal Regulations (40 CFR 160). It consisted of determining the single dose toxicity in rats or LD50.
# [12] = albino rabbits, oxide concentrate
# Method: as §1
# The third evaluation, entitled “Primary Dermal Irritation in Albino Rabbits”, conformed to 40 CFR 160. It consisted of exposing the rabbits for prolonged periods of time and observing edema, erythema, ulceration, necrosis and any other evidence of dermal reactions or tissue destruction.
# [13] = tested on: Enterobacter cloacac 13047; settings: concentration not given
# [14] = tested on: Saccharomycetpideae variety; settings: Sabouraud dextrose broth
# Source text: Silver tetroxide was further evaluated in analogous nutrient used for yeasts and molds, namely, Sabouraud dextrose broth.
# [15] = rabbits, dermal application
# Method: as §1
# The second evaluation was for acute dermal toxicity in rabbits. The protocol, 40 CFR 158.135, 81-2, was to determine the LD50 for dermal application.
# [16] = tested on: Bacillus subtilis 6633
# Method: (§3) Both the prepared and commercial materials were submitted for bactericidal evaluation following “good laboratory practice” regulations as set forth in Federal regulations (FIFRA and ffdca/40 CFR 150, May 2, 1984). The silver materials were tested as to whether they could kill pathogenic microorganisms with the intent of utilizing them in pharmaceutical applications. […] Strains of gram positive bacteria were chosen for the evaluation. One family of pathogens that are known for their deleterious effects on humans are popularly called “staph” infections. These infections are commonly contracted in hospitals having lax infectious screening procedures. Accordingly, three staph strains were selected as follows for evaluation: Staphylococcus aureus 9027 and 27543, and Staphylococcus epidermidis 12228. The inoculum nutrient broth was prepared according to AOAC specifications so as to contain 0.6-1 million organisms per drop of inoculum, each drop being equal to 0.05 ml. The broth itself was trypticase soy broth BBL 11766 prepared according to label instructions. Accordingly, the broth was prestandardized for the microorganisms in question in order to assure that the number of organisms remained constant within the margins of statistical allowance during the test period. […] Other gram positive bacteria pathogens were similarly evaluated.
# [17] = tested on: Candida albicans strain 16464; settings: Sabouraud dextrose broth
# Method: as §3
# [18] = tested on: Staphylococcus epidermidis 12228; settings: 24 hours at 34-35° C., 10 PPM sodium persulfate
# Method: as §3
# [19] = tested on: Micrococcus luteus 9341
# Method: as §3
# [20] = tested on: Streptococcus pyogenes 7958
# Method: as §3
smiles,measurement,setting,value
[Ag+].[Ag+].[Ag+].[Ag+].[O-2].[O-2].[O-2].[O-2] [Tetrasilver tetroxide],FDA category for eye effects,[1],category IV
same,eye irritation,[1],no eye irritation
same,minimal concentration to inhibit the microorganism,[2]; Staphylococcus aureus 9027,2.5 PPM
same,minimal concentration to inhibit the microorganism,[2]; Staphylococcus aureus 27543,5.0 PPM
same,concentration at which totally killed,[3],2.5 PPM
same,concentration effecting 100% kills of algae,[4],about 1 PPM
same,kill of colonies of Streptococcus faecalis,[5],100%
same,minimal inhibiting concentration required for 100% kills,[6],1.25 PPM
same,kill of colonies of E. coli,[7],100%
same,kills,[8],100%
same,concentration achieving 100% kills,[9],5.0 PPM
same,concentration achieving 100% kills,[10]; E. coli strain 10231,2.5 PPM
same,concentration achieving 100% kills,[10]; E. coli strain 25254,2.5 PPM
same,FDA toxicity category,[11]; single dose toxicity,category IV
same,LD50,"[11]; single dose, 3% concentrate, all animals survived",greater than 5000 mg./Kg.
same,FDA category as dermal agent,[12],category IV
same,"dermal reactions (edema, erythema, ulceration, necrosis, tissue destruction)",[12]; prolonged exposure,none
same,kills,[13],100%
same,concentration at which totally killed,[14],1.25 PPM
same,toxicity category (acute dermal),[15],category III
same,dermal LD50,[15]; all animals survived maximum dose,greater than 2000 mg./Kg.
same,minimal inhibiting concentration required for 100% kills,[16],5.00 PPM
same,concentration completely inhibiting growth,[17],2.5 PPM
same,minimal concentration to inhibit the microorganism,[18],0.625 PPM
same,minimal inhibiting concentration required for 100% kills,[19],1.25 PPM
same,minimal inhibiting concentration required for 100% kills,[20],2.50 PPM
